Assay results: patent US20240382482A1, “PLASMA KALLIKREIN INHIBITORS” (TAKEDA PHARMACEUTICAL COMPANY LIMITED, priority 2021, published 2024)

What was measured:
[1] = biological target: T1, plasma kallikrein (Homo sapiens, UniProt P03952); assay: Neat human plasma assay (fluorogenic peptide), contact pathway-activated plasma; assay type: biochemical; conditions: sodium citrate human plasma (78% final), 10 nM human FXIIa, 100 μM PFR-AMC, room temperature
T1 construct: added to sodium citrate collected human or rat plasma in a 96-well microplate; from tissue
Description: To analyze inhibition of plasma kallikrein in an ex vivo setting, the potency of compounds was measure in contact pathway-activated plasma assays. In a fluorogenic peptide substrate assay, test compounds dissolved in DMSO were added to sodium citrate collected human or rat plasma in a 96-well microplate. Alternatively, citrated plasma was collected from rats administered the compounds orally or by IV. 10 nM of human FXIIa (Enzyme Research Laboratories) diluted in PKa buffer (20 mM Tris-HCl, pH 7.5, 150 mM NaCl, 1 mM EDTA, 0.1% PEG-8000, and 0.1% Triton X-100) was added to the plasma, followed by the 100 μM of the profluorescent, synthetic plasma kallikrein substrate PFR-AMC (also diluted in PKa buffer). Final plasma concentration in the reaction was 78%. Fluorescence was immediately monitored by excitation/emission wavelengths of 360 nm/480 nm respectively over a period of 5 minutes in a microplate reader. The resulting linear increase in fluorescence emission (reflecting PKa proteolysis of PFR-AMC substrate) was fit to extract a proteolytic rate (fluorescent units over time), and this rate was subsequently plotted against compound inhibitor concentration. Resulting plots were fit to a standard 4-parameter IC50/IC90 equation to determine min/max values, IC50/90, and slope. All experimental steps were performed at room temperature.

[2] = biological target: human activated kallikrein enzyme (Homo sapiens, UniProt P03952); assay: Inhibition of human activated kallikrein enzyme, fluorogenic peptide substrate assay (500 pM enzyme format); assay type: biochemical; conditions: 500 pM activated kallikrein, 300 μM PFR-AMC substrate, 30 min preincubation, 10 min reaction, room temperature; read-out: Primary Dose Response Assay: Average EC50
Outline: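 500 pM enzyme preincubated 30 min at room temperature with inhibitor in 20 mM Tris pH 7.5, 150 mM NaCl, 1 mM EDTA, 0.1% PEG-400, 0.1% Triton X-100. Reaction started with 300 μM PFR-AMC and run 10 min at room temperature. AMC fluorescence read at ex 380/em 460 nm, and EC50 values reported as ranges.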

Sequence of human activated kallikrein enzyme (P03952 391-638 limits assumed): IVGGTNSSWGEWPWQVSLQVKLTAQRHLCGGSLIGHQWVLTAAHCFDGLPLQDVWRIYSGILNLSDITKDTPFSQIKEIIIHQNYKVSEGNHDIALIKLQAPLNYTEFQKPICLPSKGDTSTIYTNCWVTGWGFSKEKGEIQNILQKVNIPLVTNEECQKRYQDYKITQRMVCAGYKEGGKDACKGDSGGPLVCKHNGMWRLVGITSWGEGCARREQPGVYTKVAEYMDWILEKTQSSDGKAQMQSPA
Sequence of human activated kallikrein enzyme (P03952 20-390 partner limits assumed): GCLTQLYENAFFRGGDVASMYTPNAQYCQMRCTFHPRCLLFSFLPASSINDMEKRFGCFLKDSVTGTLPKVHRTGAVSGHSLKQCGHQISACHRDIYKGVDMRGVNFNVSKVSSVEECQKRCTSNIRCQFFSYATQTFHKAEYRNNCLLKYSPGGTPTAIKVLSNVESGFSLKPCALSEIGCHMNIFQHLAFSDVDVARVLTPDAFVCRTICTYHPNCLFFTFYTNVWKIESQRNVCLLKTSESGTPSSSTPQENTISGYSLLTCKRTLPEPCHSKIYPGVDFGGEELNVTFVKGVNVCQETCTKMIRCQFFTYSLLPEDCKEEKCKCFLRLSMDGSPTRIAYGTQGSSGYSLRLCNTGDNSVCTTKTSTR
T1 sequence (P03952 391-638 limits assumed): as the sequence (P03952 391-638 limits assumed) above
T1 sequence (P03952 20-390 partner limits assumed): as the sequence (P03952 20-390 partner limits assumed) above

| SMILES | IC90 [1] | EC50 [2] |
| --- | --- | --- |
| Cc1cc(N)nc(C)c1CNc1cc(OCc2cn3cc(C4CC4)cc(C4(F)COC4)c3n2)ncn1 [Example 109, N-((6-amino-2,4-dimethylpyridin-3-yl)methyl)-6-((6-cyclopropyl-8-(3-fluorooxetan-3-yl)imidazo[1,2-a]pyridin-2-yl)methoxy)pyrimidin-4-amine] | ≤ 0.5 µM | ≤ 0.005 µM |
| Cc1cc(N)nc(C)c1CNc1cc(OCc2cn3cc(C4CC4)ccc3n2)ncn1 [Example 107, N-((6-amino-2,4-dimethylpyridin-3-yl)methyl)-6-((6-cyclopropylimidazo[1,2-a]pyridin-2-yl)methoxy)pyrimidin-4-amine] | 5 to 25 µM | ≤ 0.005 µM |
| O=C(Cc1n[nH]c2ccc(Cl)cc12)Nc1cc(NCc2cn3cc(C4CC4)ccc3n2)ccn1 [Example 26, 2-(5-chloro-1H-indazol-3-yl)-N-(4-(((6-cyclopropylimidazo[1,2-a]pyridin-2-yl)methyl)amino)pyridin-2-yl)acetamide] | 5 to 25 µM | ≤ 0.005 µM |
| Cc1cc(N)nc(C)c1CNc1cc(OCc2cn3cc(C4CC4)ccc3n2)ccn1 [Example 110, 5-(((4-((6-cyclopropylimidazo[1,2-a]pyridin-2-yl)methoxy)pyridin-2-yl)amino)methyl)-4,6-dimethylpyridin-2-amine] | 5 to 25 µM | ≤ 0.005 µM |
| Cc1cc(N)nc(C)c1CNc1cc(OCc2cn3cc(C4CC4)cc(CO)c3n2)ncn1 [Example 113, (2-(((6-(((6-amino-2,4-dimethylpyridin-3-yl)methyl)amino)pyrimidin-4-yl)oxy)methyl)-6-cyclopropylimidazo[1,2-a]pyridin-8-yl)methanol] | 5 to 25 µM | ≤ 0.005 µM |
| CN1C(=O)CN(c2cc(C3CC3)cn3cc(CNc4cc(NC(=O)Cc5ncn6ncc(Cl)cc56)ncn4)nc23)C1=O [Example 141, 2-(3-chloroimidazo[1,5-b]pyridazin-5-yl)-N-(6-(((6-cyclopropyl-8-(3-methyl-2,4-dioxoimidazolidin-1-yl)imidazo[1,2-a]pyridin-2-yl)methyl)amino)pyrimidin-4-yl)acetamide] | 0.5 to 5 µM | ≤ 0.005 µM |
